The values that follow come from US20250345299A1, “COMBINATION AND COMPOSITION COMPRISING NICOTINIC ACID OR DERIVATIVE THEREOF AND FATTY ACID OR DERIVATIVE THEREOF” (T OMEGA AS, priority 2022, published 2025).

Holding throughout (format): in vivo, male Wistar rats, Rattus norvegicus
Test [1] in a line: Analysis of plasma compounds in rats fed high-fat diet supplemented with TTA, NR, NAR or combinations. Details: Quinolinic acid / Nicotinamide / N1-Methylnicotinamide / Pyridoxal 5′-phosphate / Pyridoxal / Thiamine monophosphate: unit not given here. To be noted: high-fat diet + supplement, 12 weeks. The procedure:
This example illustrates an animal study using male Wistar rats which were fed NR, NAR, TTA and combinations thereof.
(§1) The animal study was conducted according to the Guidelines for the Care and Use of Experimental Animals, and in accordance with the Norwegian legislation and regulations governing experiments using live animals. All efforts were made to optimize the animal environment and minimize suffering. Eight weeks-old old male Wistar rats, Rattus norvegicus, weighing 400-450 g, were purchased from Taconic (Ejby, Denmark). Upon arrival the rats were randomized using Research Randomizer, labeled and placed in open cages, two in each cage, where they were allowed to acclimatize to their surroundings for one week. During the acclimatization and experiment period, the rats had unrestricted access to tap water, but restricted access to chow to obtain a constant dose through the experiment.
(§2) The rats were kept in a 12 hours light/dark cycle at a constant temperature (22±2° C.) and a relative humidity of 55% (±5%). Upon start of the experiment, the rats were block randomized to their respective interventions. All rats were divided into seven groups. The first group of animals (control group) was fed a high-fat diet (HF) with 25% by weight fat, consisting of 23% by weight lard and 2% by weight soybean oil, referred to as “HF”. The second group was fed a high-fat diet (HF) supplemented with tetradecylthioacetic acid (TTA) (250 mg/day/kg body weight), referred to as “HF+TTA”. The third group was fed a high-fat diet (HF) supplemented with nicotineamide riboside (NR) (100 mg/day/kg body weight), referred to as “HF+NR”. The fourth group was fed a high-fat diet (HF) supplemented with nicotinic acid riboside (NAR) (40 mg/day/kg body weight), referred to as “HF+NAR”. The fifth group was fed a high-fat diet (HF) supplemented with both tetradecylthioacetic acid (TTA) (250 mg/day/kg body weight) and nicotineamide riboside (NR) (100 mg/day/kg body weight), referred to as “HF+TTA+NR”. The sixth group was fed a high-fed diet (HF) supplemented with both tetradecylthioacetic acid (TTA) (250 mg/day/kg body weight) and nicotinic acid riboside (NAR) (40 mg/day/kg body weight), referred to as “HF+TTA+NAR”. The seventh group was fed a low-fed diet, referred to as “LF”.
(§3) All animals were weighed daily and feed intake was determined weekly. The animal experiment was run for 12 weeks. At sacrifice, rats were anaesthetized by inhalation of 2-5% isoflurane (Schering-Plough, Kent, UK), the abdomen opened along the midline, and exsanguination was performed using cardiac puncture. EDTA-blood was collected and immediately chilled on ice. The samples were centrifuged and plasma was stored at −80° C. prior to analysis. Different tissues were collected, weighed and were immediately snap-frozen in liquid nitrogen and stored at −80° C. until further analysis.

A short description of test [2]: Liver lipids in rats fed supplemented high-fat diet. The conditions noted are these: high-fat diet + supplement, 12 weeks. How it is done:
as §1, with “Eight weeks-old old male Wistar rats, Rattus norvegicus, weighing 400-450 g, were purchased from Taconic (Ejby, Denmark).” left out
The rats were kept in a 12 hours light/dark cycle at a constant temperature (22±2° C.) and a relative humidity of 55% (±5%). Upon start of the experiment, the rats were block randomized to their respective interventions. All rats were divided into seven groups. The first group of animals (control group) was fed a high-fat diet (HF) with 25% by weight fat, consisting of 23% by weight lard and 2% by weight soybean oil, referred to as “HF”. The second group was fed a high-fat diet (HF) supplemented with tetradecylthioacetic acid (TTA) (250 mg/day/kg body weight), referred to as “HF+TTA”. […]
All animals were weighed daily and feed intake was determined weekly. […]

The nature of test [3]: Body and adipose tissue weights in rats fed supplemented high-fat diet. How it is done:
as §1, with “Eight weeks-old old male Wistar rats, Rattus norvegicus, weighing 400-450 g, were purchased from Taconic (Ejby, Denmark).” left out
as §2, §3

A short description of test [4]: Plasma lipids and total fatty acids in rats fed supplemented high-fat diet. The conditions noted are these: high-fat diet + supplement, 12 weeks. How it is done:
as §1, with “Eight weeks-old old male Wistar rats, Rattus norvegicus, weighing 400-450 g, were purchased from Taconic (Ejby, Denmark).” left out
as §2, §3

The mark [5] stands for this setting: high-fat diet + supplement, 12 weeks.

On to `O=C([O-])c1ccc[n+]([C@@H]2O[C@H](CO)[C@@H](O)[C@H]2O)c1` [HF + NAR, nicotinic acid riboside], for which, in test [1], the 2-Aminoadipic acid is 1.34 µM, the 3-Hydroxyanthranilic acid stood at 7.8 µM, the Folic acid was 0.70 µM and the Methylmalonic acid worked out at 2.35 µM. In test [1], the N1-Methylnicotinamide came to 2414, the Nicotinamide came to 4308, the Nicotinic acid is 11.95 µM and the Pyridoxal is 384.1. In test [1], the “Pyridoxal 5′-phosphate” value came to 598.3, the Serine came to 325 µM, the Thiamine monophosphate is 350.0 and the Trigonelline was 0.084 µM.
With nicotineamide riboside [HF + NR], in test [2], the “Liver lipids: Cholesterol” value came out at 39.84 µmol/g and the “Liver lipids: Triglycerides” value worked out at 75.22 µmol/g. Also, in test [3] (setting [5]), the “Brown adipose tissue weight” value was determined as 0.308 g and the “White adipose tissue weight” value was found to be 34.52 g. Further, in test [3] (high-fat diet + supplement, end of 12 weeks), the Body weight end was found to be 555.60 g. Also, the Body weight start in test [3] (start of experiment (baseline)) came out at 409.60 g. In addition, in test [1], the 2-Aminoadipic acid is 1.33 µM, the 3-Hydroxyanthranilic acid was found to be 5.4 µM, the 3-Hydroxybutyrate worked out at 287 µM and the Acetoacetate was found to be 72.9 µM. In addition, in test [1], the Glycine was found to be 221 µM, the Methylmalonic acid turned out to be 3.37 µM, the N1-Methylnicotinamide is reported as 3616 and the Nicotinamide is 5870. In test [1], the Nicotinic acid amounted to 12.38 µM, the Pyridoxal is reported as 369.8, the “Pyridoxal 5′-phosphate” value is given as 729.0 and the Quinolinic acid was determined as 533. Further, in test [4], the HDL/LDL ratio was determined as 2.117, the “Plasma lipids: Cholesterol” value was 2.000 mmol/L, the “Plasma lipids: High density lipoprotein” value was 0.938 mmol/L and the “Plasma lipids: Low density lipoprotein” value was found to be 0.450 mmol/L. Further, in test [4], the “Plasma lipids: Triglycerides” value was 2.194 mmol/L and the “Total fatty acids, plasma” value was 3049 µg/mL.
